{
  "source": "patent US20170226541A1",
  "about": "“METHOD OF IMPROVING SOLVENT TOLERANCE IN MICROBES” (Nanyang Technological University, priority 2014, published 2017)",
  "key": {"[1]": {"test": "Single molecule tracking of DHPE-Atto647N in supported lipid bilayer", "design": "species or system E. coli", "conditions": "for effect on MSD / bilayer stiffness (comparison of OPV COEs): no butanol, OPV COE final concentration 1 μM (FIG. 4)", "description": "SLB formation, MIM treatment: A 3 mg/ml chloroform solution of total E. coli lipid extract (Avanti Polar Lipids, Alabaster, Ala.) was mixed with DHPE-Atto647N (Atto-Tec, Slegen, Germany) to 0.001% mol in a round bottom flask produce large unilamellar vesicles (LUVs). Chloroform was evaporated using a rotary evaporator for 2 hours at 65° C. The lipid film was resuspended in 10 mM HEPES and 150 mM NaCl, pH 7.4, vortexed for 10 min and sonicated in a bath sonicator until a clear solution was obtained. One hundred μl of such a prepared LUVs solution were deposited in a custom made plastic holder, glued to a coverslip, and incubated for 60 min at 65° C. Prior to use, coverslips were cleaned by 30 min sonication in 2% Hellmanex (Hellma Analytics, Millheim, Germany), followed by thorough rinsing with deionized (DI) water. Un-fused vesicles were removed by 10× washing with 400 μl of 10 mM Hepes, 150 mM NaCl, 3 mM EDTA, pH 7.4 buffer. Calculated volumes of COE1-5C, DSSN+, DSBN+ and 4F-DSBN+ (0.1 mM) were added directly to the chamber to final concentrations of 1 μM, mixed and allowed to equilibrate for 5 min prior to measurement.\nData acquisition: For total internal reflection microscopy (TIRF) imaging, a modified Nikon Eclipse TE2000U TIRF setup was used, equipped with a 100× 1.49NA objective (Nikon, Japan). Laser light from a 638 nm LED laser was passed through a 660LP dichromic mirror (Chroma Technology Corp, Bellows Falls, Vt.) and used for sample illumination under the TIR angle. Emitted light was filtered using a 738/75 […] and collected on a back-illuminated EMCCD camera chip (Andor iXON897, 512x512px, Andor Technology, USA). For each condition, 4 to 6 datasets of 4000 frames at 97 fps were collected from different regions of the membrane. Immobile particles and contaminants were bleached prior to measurement.\nData analysis: A Mosaic Particle Tracker ImageJ plugin was used to localize the centroid of single molecule signals and link them to trajectories. TrackArt software was used to filter spurious trajectories and extract mean square displacements and diffusion coefficients. […] The slowly-diffusing population occurs most likely due to marker interaction with the surface."}, "E. coli K12 [2]": {"test_system": "E. coli K12", "test": "Toxicity tests (minimum inhibitory concentration)", "assay_type": "cell-based, Escherichia coli K12", "description": "Relative toxicities of DSSN+ and DSBN+ are positively correlated with the extent of mismatch between the length of the hydrophobic molecular backbone and bilayer thickness. Membrane insertion of the shorter, 3-ringed DSBN+ thinned the membrane more than the 4-ringed DSSN+, perturbing it to a greater extent, and was correspondingly more toxic. In this example, the objective is to mitigate the toxic effect of organic solvents on biological membranes. To avoid synergistic membrane disruption in systems containing both MIMs and solvents, MIMs that were the least likely to perturb membranes, that is, DSSN+×(which was previously shown to maintain the natural thickness of membranes) and COE1-5C, were selected. The insertion of COE1-5C, whose molecular length (≈5 nm) is greater than the thickness of the bilayer (≈4 nm), would be expected to initiate membrane perturbation because of hydrophobic mismatch. However, positive hydrophobic mismatch perturbs lipid bilayers less than instances of negative mismatch—where the length of the insertion molecules is shorter than the thickness of the bilayer. The experimental concentration of COE1-5C used in this study (10 μM) is much lower than its minimum inhibitory concentration (MIC). […] This is considerably greater than for DSSN+, DSBN+ and 4F-DSBN+, further supporting the hypothesis that membrane thinning is a potent toxicity determinant. […]"}, "E. coli K12 [3]": {"test_system": "E. coli K12", "test": "Butanol challenge, microdilution growth test", "assay_type": "cell-based, Escherichia coli K12 (ATTC 10798)", "conditions": "for protective effect on growth under butanol challenge: 0 to 3.5% (v/v) butanol, DSSN+ 5 μM", "description": "Butanol challenge was assessed by using a microdilution format modified standard toxicity test based on the method described by Wiegand et al (I. Wiegand, K. Hilpert, R. E. W. Hancock, Nat. Protocols 2008, 3, 163-175). Cultures of E. coli K12 (ATTC 10798) grown in LB broth were harvested at late log phase and diluted to 1×10^6 cfu ml. One hundred μl of the suspension were inoculated into 96 well plates with each well containing an equal volume of LB broth and spiked with the following concentrations of 1-butanol: […] in a 96 well plate achieving a final inoculum density of 5×10^5 and a final butanol concentration of 0, 0.85, 1.75, and 3.5% (v/v). Tests were run in triplicate with and without COE1-5C (10 μM) and DSSN+ (5 μM) using the appropriate sterility and growth controls. Specific growth rates were expressed as an average of all replicates."}, "E. coli K12 cells": {"test_system": "E. coli K12 cells", "test": "Modified microbial adhesion to hydrocarbon (MATH) test", "assay_type": "cell-based, Escherichia coli K12", "description": "To test for cell surface modifications brought about by COE1-5C that might affect hydrophobicity, E. coli K12 cells treated with COE1-5C (10 μM) were tested for their affinity for either the butanol or aqueous phase against an untreated control. The tendency of E. coli to partition into the butanol phase or remain in the aqueous phase was assessed optically by measuring the reduction in turbidity (OD600) of tubes containing a saturated mixture of butanol (1.5 ml) and buffer (18.5 ml). The tests were carried out with appropriate blanks and both positive and negative controls. MATH tests were carried out in triplicate and expressed as the quotient of the difference between the OD600 at the start and […] and the OD600 at the […]."}, "E. coli K12 [4]": {"test_system": "E. coli K12", "test": "Membrane polarisation (DiSC3 fluorescence)", "assay_type": "cell-based, Escherichia coli K12", "conditions": "10 μM COE1-5C; 0, 1.75 or 3.5% (v/v) 1-butanol", "description": "Cultures of E. coli K12 grown in LB broth were harvested at late log phase and diluted to 5×10^5 cfu ml. Cells were centrifuged at 5000×g for 5 min and washed in phosphate buffered saline (PBS). The process was repeated three times and the pellet finally resuspended in PBS. Two-hundred μl of the cell suspension were inoculated into 96 well plates, 2 μL of the depolarization detecting probe 3,3-diethylthiodicarbocyanine (DiSC3) iodide was added to the treatment wells and to half of these, 10 μM COE1-5C. The cells were allowed to incubate for around 30 min and the fluorescence intensity at 670 nm was measured after excitation at 620 nm until a stable base line was reached. Zero, 1.75, or 3.5% (v/v) 1-butanol was added to the test well and the increase in fluorescence intensity was taken at 1 min intervals (Ex=λ620, Em=Δ670) as a bottom reading with optimal gain to determine the degree of membrane polarization. Buffer, dye, and COE1-5C blanks were monitored and the data corrected accordingly."}},
  "note": "“Also recorded” adds a separate entry of the source.",
  "data": [
    {"smiles": "C[N+](C)(C)CCCCCCN(CCCCCC[N+](C)(C)C)c1ccc(/C=C/c2ccc(/C=C/c3ccc(N(CCCCCC[N+](C)(C)C)CCCCCC[N+](C)(C)C)cc3)cc2)cc1.[I-].[I-].[I-].[I-]", "note": "[DSBN+, reference compound]", "values": [
      {"measurement": "effect on MSD / bilayer stiffness (comparison of OPV COEs)", "setting": "[1]", "result": "to a lesser degree than the five-ringed structure"}
    ]},
    {"smiles": "C[N+](C)(C)CCCCCCN(CCCCCC[N+](C)(C)C)c1ccc(/C=C/c2c(F)c(F)c(/C=C/c3ccc(N(CCCCCC[N+](C)(C)C)CCCCCC[N+](C)(C)C)cc3)c(F)c2F)cc1.[I-].[I-].[I-].[I-]", "note": "[4F-DSBN+, reference compound]", "values": [
      {"measurement": "effect on MSD / bilayer stiffness (comparison of OPV COEs)", "setting": "[1]", "result": "stiffened the least amount"}
    ]},
    {"smiles": "C[N+](C)(C)CCCCCCN(CCCCCC[N+](C)(C)C)c1ccc(C=Cc2ccc(C=Cc3ccc(C=Cc4ccc(C=Cc5ccc(N(CCCCCC[N+](C)(C)C)CCCCCC[N+](C)(C)C)cc5)cc4)cc3)cc2)cc1.[I-].[I-].[I-].[I-]", "note": "[COE1-5C]", "values": [
      {"measurement": "reduction in MSD of membrane marker", "setting": "[1]; 0% (v/v) butanol", "result": 62, "unit": "%"},
      {"measurement": "diffusion coefficients in model membranes versus control", "setting": "[1]; 10 μM COE1-5C, 0.85, 1.75, 3.50% v/v butanol (FIG. 2)", "result": "much lower than in control systems"},
      {"measurement": "reduction in MSD of membrane marker", "setting": "[1]; 0.85% (v/v) butanol", "result": 38, "unit": "%"},
      {"measurement": "reduction in MSD of membrane marker", "setting": "[1]; 1.75% (v/v) butanol", "result": 22, "unit": "%"},
      {"measurement": "reduction in MSD of membrane marker", "setting": "[1]; 3.5% v/v butanol", "result": 15, "unit": "%"},
      {"measurement": "effect on MSD / bilayer stiffness (comparison of OPV COEs)", "setting": "[1]", "result": "increased bilayer stiffness to the greatest degree"},
      {"measurement": "minimum inhibitory concentration (MIC)", "setting": "E. coli K12 [2]", "result": 128, "unit": "µM"},
      {"measurement": "protective effect on growth under butanol challenge", "setting": "E. coli K12 [3]; COE1-5C 10 μM", "result": "increased the growth rate of E. coli K12 in all instances of butanol challenge; also recorded: mitigates the toxic effect of butanol"},
      {"measurement": "growth rate of treated cells relative to untreated cells (fold)", "setting": "E. coli K12 [3]; 3.5% v/v butanol", "result": "threefold increase"},
      {"measurement": "growth rate relative to a control", "setting": "E. coli K12 [3]; 3.5% v/v butanol", "result": "about 13%"},
      {"measurement": "specific growth rate", "setting": "E. coli K12 [3]; 3.5% v/v butanol, COE1-5C 10 μM, listed as conjugated oligo-electrolyte", "result": 0.095, "unit": "h⁻¹"},
      {"measurement": "growth rate of treated cells relative to untreated cells (fold)", "setting": "E. coli K12 [3]; 3.5% v/v butanol, listed as OPV COE", "result": "three times"},
      {"measurement": "growth rate of treated cells relative to untreated cells (fold)", "setting": "E. coli K12 [3]; 3.5% v/v butanol, listed as conjugated oligo-electrolyte", "result": 3},
      {"measurement": "tendency of treated cells to partition into the butanol phase relative to untreated cells", "setting": "E. coli K12 cells; 10 μM COE1-5C", "result": "less than half that of untreated cells"},
      {"measurement": "MATH value", "setting": "E. coli K12 cells; E. coli K12 treated with 10 μM COE1-5C, butanol/buffer partitioning, OD600", "result": "0.17 (±0.027)"},
      {"measurement": "membrane depolarization by butanol", "setting": "E. coli K12 [4]", "result": "mitigated the depolarization efficiency of butanol"}
    ]},
    {"smiles": "C[N+](C)(C)CCCCCCN(CCCCCC[N+](C)(C)C)c1ccc(/C=C/c2ccc(/C=C/c3ccc(/C=C/c4ccc(N(CCCCCC[N+](C)(C)C)CCCCCC[N+](C)(C)C)cc4)cc3)cc2)cc1.[I-].[I-].[I-].[I-]", "note": "[DSSN+, reference compound]", "values": [
      {"measurement": "effect on MSD / bilayer stiffness (comparison of OPV COEs)", "setting": "[1]", "result": "to a lesser degree than the five-ringed structure"},
      {"measurement": "protective effect on growth under butanol challenge", "setting": "E. coli K12 [3]; COE1-5C 10 μM", "result": "no protective effect; also recorded: no growth of E. coli K12 was observed"},
      {"measurement": "protective effect on growth under butanol challenge", "setting": "E. coli K12 [3]; COE1-5C 10 μM, listed as DSSN^+", "result": "do not"}
    ]}
  ]
}
